Assay: Screening of different concentrations of the chelating agent GLDA (peracetic acid concentration over storage)
Format: physicochemical

SMILES: O=C([O-])CC[C@@H](C(=O)[O-])N(CC(=O)[O-])CC(=O)[O-].[Na+].[Na+].[Na+].[Na+] [GLDA, N,N-bis(carboxymethyl)-L-glutamic acid tetrasodium salt]
- peracetic acid concentration of the aqueous disinfectant solution (0.05 wt.-% GLDA in component (B), day 0, 23° C.): 2314 ppm
- peracetic acid concentration of the aqueous disinfectant solution (0.05 wt.-% GLDA in component (B), day 1, 23° C.): 2220 ppm
- peracetic acid concentration of the aqueous disinfectant solution (0.05 wt.-% GLDA in component (B), day 4, 23° C.): 1847 ppm
- peracetic acid concentration of the aqueous disinfectant solution (0.05 wt.-% GLDA in component (B), day 6, 23° C.): 1753 ppm
- peracetic acid concentration of the aqueous disinfectant solution (0.05 wt.-% GLDA in component (B), day 7, 23° C.): 1653 ppm
- peracetic acid concentration of the aqueous disinfectant solution (0.05 wt.-% GLDA in component (B), day 8, 23° C.): 1563 ppm
- peracetic acid concentration of the aqueous disinfectant solution (0.05 wt.-% GLDA in component (B), day 9, 23° C.): 1466 ppm
- peracetic acid concentration of the aqueous disinfectant solution (0.05 wt.-% GLDA in component (B), day 15, 23° C.): 829 ppm
- peracetic acid concentration of the aqueous disinfectant solution (0.1 wt.-% GLDA in component (B), day 0, 23° C.): 2346 ppm
- peracetic acid concentration of the aqueous disinfectant solution (0.1 wt.-% GLDA in component (B), day 1, 23° C.): 2202 ppm
- peracetic acid concentration of the aqueous disinfectant solution (0.1 wt.-% GLDA in component (B), day 4, 23° C.): 1856 ppm
- peracetic acid concentration of the aqueous disinfectant solution (0.1 wt.-% GLDA in component (B), day 6, 23° C.): 1793 ppm
- peracetic acid concentration of the aqueous disinfectant solution (0.1 wt.-% GLDA in component (B), day 7, 23° C.): 1682 ppm
- peracetic acid concentration of the aqueous disinfectant solution (0.1 wt.-% GLDA in component (B), day 8, 23° C.): 1636 ppm
- peracetic acid concentration of the aqueous disinfectant solution (0.1 wt.-% GLDA in component (B), day 9, 23° C.): 1566 ppm
- peracetic acid concentration of the aqueous disinfectant solution (0.1 wt.-% GLDA in component (B), day 15, 23° C.): 1075 ppm
- stabilisation of peracetic acid, comparison of GLDA concentrations (0.1 wt.-% GLDA in the stabilizer component (B)): best stabilisation
- peracetic acid concentration of the aqueous disinfectant solution (0.5 wt.-% GLDA in component (B), day 0, 23° C.): 2408 ppm
- peracetic acid concentration of the aqueous disinfectant solution (0.5 wt.-% GLDA in component (B), day 1, 23° C.): 2113 ppm
- peracetic acid concentration of the aqueous disinfectant solution (0.5 wt.-% GLDA in component (B), day 4, 23° C.): 1821 ppm
- peracetic acid concentration of the aqueous disinfectant solution (0.5 wt.-% GLDA in component (B), day 6, 23° C.): 1718 ppm
- peracetic acid concentration of the aqueous disinfectant solution (0.5 wt.-% GLDA in component (B), day 7, 23° C.): 1682 ppm
- peracetic acid concentration of the aqueous disinfectant solution (0.5 wt.-% GLDA in component (B), day 8, 23° C.): 1625 ppm
- peracetic acid concentration of the aqueous disinfectant solution (0.5 wt.-% GLDA in component (B), day 9, 23° C.): 1512 ppm
- peracetic acid concentration of the aqueous disinfectant solution (0.5 wt.-% GLDA in component (B), day 15, 23° C.): 1016 ppm
- shelf life of the aqueous disinfectant use solution (component (B) comprised 0.05 wt.-%, 0.1 wt.-% or 0.5 wt.-% GLDA): about 14 days

Reference: patent US11140896B2, “Two components disinfecting composition containing peracetic acid and chelating agent” (ECOLAB USA INC., priority 2014, dated 2021)
